Source: paper PMC11842024, “Reversible male contraception by targeted inhibition of serine/threonine kinase 33” (Science (New York, N.Y.), 2024)

Columns and labels:
[1] = CDD-2807 concentrations in mouse brain, liver, lung, and testis; assay type: in vivo, mice
Protocol: Pharmacokinetics (PK) of CDD-2807 in mice. The pharmacokinetic studies (72) of CDD-2807 were performed at three doses via intraperitoneal (i.p.) injection and oral (p.o.) administration.
CDD-2807 was dissolved in 10% Captisol containing 5% DMSO to prepare the solutions of 0.5 mg/mL, 2.5 mg/mL and 5.0 mg/mL. Twelve male mice (strain: C57BL/6NJ, 8−12 weeks) were divided equally and randomly into 4 groups (n = 3 for each dose). One group of mice were administered 5 mg/kg CDD-2807 (i.p., 10 µL/g of 0.5 mg/mL solution), the second group 25 mg/kg CDD-2807 (i.p., 10 µL/g of 2.5 mg/mL solution), the third group 5 mg/kg CDD-2807 (p.o., 10 µL/g of 0.5 mg/mL solution), and the fourth group 50 mg/kg CDD-2807 (p.o., 10 µL/g of 5.0 mg/mL solution). At 0, 5, 10, 15, 30 min, 1, 2, 4, 6, 8, 24 h post-dose, around 20 µL of blood was collected from the tail vein and anti-coagulated by heparin. The blood samples were centrifuged at 2000 g for 3 min at 4°C, and the plasma samples were transferred to tubes and stored at −80°C before analysis. All the samples were analyzed by the Thermo TSQ Quantis MS coupled with a Thermo Vanquish UHPLC (San Jose, CA). CDD-2807 was separated on a Luna C18 column (1 mm × 50 mm, 1.6 µm, Phenomenex, Torrance, CA), and eluted by a water-acetonitrile mobile phase system (both containing 0.1% formic acid, v/v) at the flow rate of 0.15 mL/min. CDD-2807 was monitored under the SRM mode coupled with a positive ESI source. The SRM ion pairs were 447→321 for CDD-2807. The ion spray voltage was set at 3500 V. High-purity nitrogen was used as the sheath gas (35 arbitrary unit), auxiliary gas (7 arbitrary unit), and high-purity argon was used as the collision gas. The temperatures of the ion transfer tube and the vaporizer were set at 300°C and 275°C, respectively. The concentration of CDD-2807 in plasma was quantified using individual calibration curves. The calibration curve was regressed with a weight of 1/x2 with high linearity (r2 >0.99). PK parameters, including half-time (t1/2), area under the plasma concentration– time curve from zero to infinity (AUC0–∞), clearance normalized by the bioavailability (CL/F), volume of distribution normalized by the bioavailability (Vd/F), and the mean residence time (MRT), were calculated by WinNonlin software (Certara, Princeton, NJ) by noncompartmental […]
analysis. […]
CDD-2807 concentrations in mouse brain, liver, lung, and testis. Tissue samples harvested from mice on day 45 of protocol 1 and at 24-hour, day 7, and day 63 of protocol 2 were weighed and snap-frozen in liquid nitrogen. The samples were stored at −80°C before analysis. Twenty-five mg of tissue was homogenized in 150 µL of 50% CH3OH, and 50 µL of homogenate was added to 200 µL of ice-cold CH3OH containing 0.1 µM of agomelatine (internal standard). The mixture was vortexed and centrifuged at 15000 g for 15 min, and supernatants were transferred into sample vials for analysis. CDD-2807 was analyzed by the same method used in the pharmacokinetic study. The concentration of CDD-2807 in the testis and brain was determined by […]
using individual calibration curves established with the corresponding tissue homogenates from untreated mice. The calibration curve was regressed with a weight of 1/x2 with high linearity (r2 […]
Spatial distribution of CDD-2807 in testis. The testis from the mice treated with CDD-2807 were attached to the Leica CM3050 S cryostat (Leica Biosystems, Deer Park, IL) with water and then sectioned at the thickness of 10 μm at −20°C. The sections were attached to electrically conductive glass slides coated with indium tin oxide ([…], 70-100 ohms, Delta Technologies, Loveland, CO). Tissue sections were sprayed with a matrix solution containing 35 mg/mL 2,5-dihydroxybenzoic acid (DHB, Sigma, St. Louis, MO) in 70% aqueous CH3OH with 0.1% trifluoroacetic acid using an HTX TM-Sprayer (HTX Technologies LLC, Carrboro, NC). Sprayer nozzle temperature was set at 70°C, tray temperature at 40°C, nozzle velocity at 1200 mm/min, […]

STK33 = STK33 (Homo sapiens, UniProt Q9BYT3); assay: NanoBRET K192 assay (Promega); assay type: cell-based; set-up: host or cells: HEK293 (HEK293T cultured); conditions: HEK293 cells
Sequence of STK33 (Q9BYT3 whole entry, the tested form may be a part): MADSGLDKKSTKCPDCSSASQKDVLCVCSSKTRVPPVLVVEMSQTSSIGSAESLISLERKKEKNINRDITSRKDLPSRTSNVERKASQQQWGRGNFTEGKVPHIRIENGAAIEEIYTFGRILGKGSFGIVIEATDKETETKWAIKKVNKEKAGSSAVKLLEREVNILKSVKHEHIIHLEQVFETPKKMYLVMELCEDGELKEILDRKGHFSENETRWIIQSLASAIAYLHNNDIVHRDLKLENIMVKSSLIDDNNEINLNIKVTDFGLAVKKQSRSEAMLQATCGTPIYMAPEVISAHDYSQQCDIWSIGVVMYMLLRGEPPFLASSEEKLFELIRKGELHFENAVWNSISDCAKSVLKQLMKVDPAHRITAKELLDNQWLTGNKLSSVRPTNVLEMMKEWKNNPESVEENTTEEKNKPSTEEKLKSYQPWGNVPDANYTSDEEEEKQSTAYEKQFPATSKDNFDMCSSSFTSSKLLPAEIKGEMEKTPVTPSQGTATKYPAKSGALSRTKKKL
Protocol: NanoBRET Target Engagement K192 assay. HEK293 cells (ATCC) were cultured in DMEM (Gibco) + 10% FBS (Seradigm) and incubated in a humidified 37°C/5% CO2 incubator. The NanoBRET Target Engagement K192 Kinase Selectivity System (Promega) contains 192 unique transfection-ready NanoLuc/Kinase fusions, pre-diluted in either transfection carrier DNA or relevant cyclin DNA. These NanoLuc/Kinase fusion constructs were transfected into HEK293 cells using Fugene HD (Promega) according to the manufacturer’s protocol. Briefly, 10 µL of a 20 µg/mL DNA solution was added to white, TC-treated 96-well assay plates (Corning), followed by 30 µL of a diluted Fugene HD solution (20 µL Fugene/1 mL Opti-MEM). After transfection complex formation, HEK293 cells were resuspended at 3.3 × 105 c/mL in Opti-MEM + 1% FBS and added at a volume of 60 µL per well, to result in approximately 20000 cells/well. Cells were incubated in a humidified 37°C/5% CO2 incubator for 20 hours. Tracer K-10 (Promega) was prepared at a 100× concentration in DMSO (Sigma) and diluted to a working concentration of 10× in tracer dilution buffer (12.5 mM HEPES, 31.25% PEG400, pH 7.5) (Promega). Test compounds were prepared as concentrated stock solutions in DMSO and diluted in Opti-MEM to prepare 10× working stocks. Cells were equilibrated with test compounds and Tracer K-10 for 2 hours prior to BRET measurements. For target engagement analysis, Tracer K-10 was added to cells at one of 4 […]
manufacturer’s protocol. To measure BRET, NanoBRET NanoGlo Substrate and Extracellular NanoLuc Inhibitor (Promega) were added according to the manufacturer’s protocol, and filtered luminescence was measured on a GloMax Discover luminometer equipped with 450 nm BP filter (donor) and 600 nm LP filter (acceptor), using 0.5 s integration time. Milli-BRET units are calculated by multiplying the raw BRET units by 1000.
For Fractional Occupancy determination, the following equation was used:
% Occupancy = [1-(X-Z)/(Y-Z)]×100
Where X = BRET in the presence of the test compound and Tracer K10, Y = BRET in the presence of Tracer K10 only, and Z = Full occupancy, or BRET in the absence of the test compound and […]
Tracer K10. […]

Work on O=C(c1ccc2[nH]nc(C#Cc3ccccc3-c3ccccc3)c2c1)N1CC2(CCCNC2)C1 [CDD-2807] yielded a concentration at 7 day ([1]; C57/129 hybrid, mouse, testis, intraperitoneal, 50 mg/kg/day over 7 days) of about 24000 ng/g, a concentration at 45 day ([1]; male, C57/129 hybrid, mouse, testis, ip, protocol 1 (15 mg/kg i.p. twice per day), day 45) of 89600 ± 14100 ng/g and a concentration at 63 day ([1]; male, C57/129 hybrid, mouse, testis, ip, protocol 2 (50 mg/kg i.p. once per day), day 63) of 114000 ± 7900 ng/g. For the same compound, the CDD-2807 in brain ([1]; protocol 1, day 45, collection 12 hours after dosing) was 0.28 ± 0.09 ng of CDD-2807 per milligram of tissue, the CDD-2807 in lung ([1]; protocol 1 and 2 mice) was “low levels” and the CDD-2807 in brain ([1]; protocol 2, day 63, collection 24 hours after dosing) was “undetectable”. The receptor occupancy at 1 µM (STK33) was 95.9%.
